The text below walks through data of patent publication US10465230B2, “Chemiluminescence-based haemostasis assay” (Stichting Katholieke Universiteit, priority 2010, dated 2019).

Counter-ions that a name gives are not always drawn.

Common to all, as to type: biochemical
In experiment [1] the target is T1, thrombin (Homo sapiens, UniProt P00734).
T1 construct: allowing factor Xa to convert prothrombin to thrombin
Put plainly: Chemiluminescent substrate cleavage by purified thrombin (luciferase/ATP luminescence). The note with it: 150 nM thrombin vs 40 nM plasmin in TBS buffer.

In experiment [2] the target is T1, thrombin. Described as above. The note with it: for RLU thrombin: 30 nM thrombin final, instead of plasma, assay as example 1; for RLU thrombin/RLU plasmin: ratio of signal with 30 nM thrombin to signal with 40 nM plasmin. The protocol:
(§1) In a 96-wells plate (final volume 120 μl), the following components were added:
(§2) 10 μl MeO—(CH2CH2O)2-acetyl-beta-Ala-Gly-Arg-aminoluciferin TFA salt (thrombin specific substrate (10 mM)), or pyroGlu-Phe-Lys-aminoluciferin TFA salt (plasmin specific substrate (10 mM))
(§3) 2 μl Luciferase (Sigma, 72 μg/ml),
(§4) 2 μl ATP (Sigma, 0.33 mM),
(§5) 14 μl TRIS/NaCl buffer (50 mM TRIS and 150 mM NaCl, pH 7.4).
(§6) This reaction mixture was mixed, followed by the addition of 4 μl TRIS/NaCl buffer with Ca^2+ to start thrombin generation. Final concentration 16.7 mM. The resultant was mixed rapidly, and thrombin generation was monitored in a Fluostar. The settings of the Fluostar were: 140 cycli of 30 seconds, Gain: Maximum=4095. Prior to measurement, 25 μl reaction mixture was taken from the well having a total volume of 120 μl. This was pipetted in a 384-well multi-titre plate suitable for measuring luminescence. The measurement was started immediately. Luminescence is depicted in Relative luminescence units (RLU).
Various substrates were analyzed using thrombin and plasmin The assay was essentially performed as described in example 1. However, instead of plasma, plasmin or thrombin were added to final concentrations of 30 nM (thrombin) or 40 nM (plasmin).

Another experiment deals with plasmin (Homo sapiens, UniProt P00747). Put plainly: Chemiluminescent substrate cleavage by purified plasmin (luciferase/ATP luminescence). The note with it: for RLU plasmin: 40 nM plasmin final, instead of plasma, assay as example 1. As to the method:
as §1, §2, §3, §4, §5, §6
Various substrates were analyzed using thrombin and plasmin The assay was essentially performed as described in example 1. […]

Chain of plasmin (P00747 581-810 limits assumed, species assumed): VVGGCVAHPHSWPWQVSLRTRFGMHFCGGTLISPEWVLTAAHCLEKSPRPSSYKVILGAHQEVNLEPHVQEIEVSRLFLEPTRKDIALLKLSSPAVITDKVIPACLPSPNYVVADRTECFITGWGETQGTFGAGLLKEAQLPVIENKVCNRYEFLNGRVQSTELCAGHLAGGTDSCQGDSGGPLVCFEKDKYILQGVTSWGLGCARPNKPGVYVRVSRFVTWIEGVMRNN
Chain of plasmin (P00747 97-580 partner limits assumed, species assumed): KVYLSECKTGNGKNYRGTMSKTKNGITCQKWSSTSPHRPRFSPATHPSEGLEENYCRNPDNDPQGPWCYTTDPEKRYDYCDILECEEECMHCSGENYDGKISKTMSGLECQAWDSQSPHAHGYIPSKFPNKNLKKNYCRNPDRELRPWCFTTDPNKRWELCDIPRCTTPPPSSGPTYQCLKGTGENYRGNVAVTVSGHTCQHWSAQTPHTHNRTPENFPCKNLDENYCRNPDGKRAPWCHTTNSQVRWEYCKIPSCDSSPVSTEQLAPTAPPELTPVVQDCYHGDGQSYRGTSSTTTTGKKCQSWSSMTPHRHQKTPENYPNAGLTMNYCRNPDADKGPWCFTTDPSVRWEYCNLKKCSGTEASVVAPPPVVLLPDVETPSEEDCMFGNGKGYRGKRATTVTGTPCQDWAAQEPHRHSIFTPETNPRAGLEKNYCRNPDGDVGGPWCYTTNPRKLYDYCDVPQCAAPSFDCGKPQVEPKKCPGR

Regarding `COCCOCCOCC(=O)NCCC(=O)NCC(=O)NC(CCCNC(=N)N)C(=O)Nc1ccc2nc(C3=NC(C(=O)O)CS3)sc2c1.O=C(O)C(F)(F)F` (stereo not drawn) [MeO—(CH2CH2O)2-acetyl-beta-Ala-Gly-Arg-aminoluciferin TFA salt], the “reactivity of thrombin and plasmin on the S1 substrate (FIG. 1a)” value at thrombin [1] is given as “more susceptible for their respective enzyme”.

As to `NCCCC[C@H](NC(=O)[C@H](Cc1ccccc1)NC(=O)[C@@H]1CCC(=O)N1)C(=O)Nc1ccc2nc(C3=N[C@@H](C(=O)O)CS3)sc2c1` [PyroGlu-Phe-Lys-aminoluciferine•TFA, pyroGlu-Phe-Lys-aminoluciferin TFA salt], at thrombin [2], the RLU thrombin stood at 139546 RLU and the “RLU thrombin/RLU plasmin” value was determined as 0.07. The “reactivity of thrombin and plasmin on the S2 substrate (FIG. 1b)” value at plasmin (4 nM plasmin vs 15 nM thrombin in TBS buffer) is on record as “more susceptible for their respective enzyme”. On plasmin, this compound yielded an RLU plasmin of 1999875 RLU.

As for `N=C(N)NCCC[C@H](NC(=O)CNC(=O)CNC(=O)OCc1ccccc1)C(=O)Nc1ccc2nc(C3=N[C@@H](C(=O)O)CS3)sc2c1.O=C(O)C(F)(F)F` [Cbz-Gly-Gly-Arg-aminoluciferine•TFA], at thrombin [2], the RLU thrombin is 771302 RLU and the “RLU thrombin/RLU plasmin” value is reported as 5.3. In addition, the RLU plasmin at plasmin was determined as 146486 RLU.

Consider `COCCOCCOCCOCCOCC(=O)NC(Cc1ccccc1)C(=O)NC(CCCNC(=N)N)C(=O)Nc1ccc2nc(C3=NC(C(=O)O)CS3)sc2c1.O=C(O)C(F)(F)F` (stereo not drawn) [CH3O—(CH2CH2O)4-acetyl-Phe-Arg-aminoluciferine•TFA], for which, on thrombin [2], the RLU thrombin is listed as 340768 RLU and the “RLU thrombin/RLU plasmin” value turned out to be 0.27. The same compound showed an RLU plasmin at plasmin of 1282351 RLU.

Take `COCCOCCOCC(=O)NCCC(=O)NCC(=O)N[C@@H](CCCNC(=N)N)C(=O)Nc1ccc2nc(C3=N[C@@H](C(=O)O)CS3)sc2c1` [MeO—(CH2CH2O)2-acetyl-beta-Ala-Gly-Arg-aminoluciferin TFA salt]: on thrombin [2], the RLU thrombin turned out to be 814171 RLU and the “RLU thrombin/RLU plasmin” value is recorded as 3.2. At plasmin, this compound yielded an RLU plasmin of 251299 RLU.

For the compound `COCCOCCOCCOCCOCC(=O)NCCC(=O)NCC(=O)N[C@@H](CCCNC(=N)N)C(=O)Nc1ccc2nc(C3=N[C@@H](C(=O)O)CS3)sc2c1.O=C(O)C(F)(F)F` [CH3O—(CH2CH2O)4-acetyl-beta-Ala-Gly-Arg-aminoluciferine•TFA], at thrombin [2], the RLU thrombin came to 293198 RLU and the “RLU thrombin/RLU plasmin” value came to 2.2. Also, the RLU plasmin on plasmin is given as 134983 RLU.

As for `N=C(N)NCCC[C@H](NC(=O)CNC(=O)CCN)C(=O)Nc1ccc2nc(C3=N[C@@H](C(=O)O)CS3)sc2c1.O=C(O)C(F)(F)F.O=C(O)C(F)(F)F` [H-beta-Ala-Gly-Arg-aminoluciferine•2TFA], at thrombin [2], the RLU thrombin stood at 292161 RLU and the “RLU thrombin/RLU plasmin” value was found to be 4.7. On plasmin, this compound came in with an RLU plasmin of 62387 RLU.

For `COCCOCCOCC(=O)NC(Cc1ccccc1)C(=O)NC(CCCNC(=N)N)C(=O)Nc1ccc2nc(C3=NC(C(=O)O)CS3)sc2c1.O=C(O)C(F)(F)F` (stereo not drawn) [CH3O—(CH2CH2O)2-acetyl-Phe-Arg-aminoluciferine•TFA], at thrombin [2], the RLU thrombin came to 300946 RLU and the “RLU thrombin/RLU plasmin” value stood at 0.40. This compound also displayed an RLU plasmin at plasmin of 759874 RLU.

For `COCC(=O)NCCC(=O)NCC(=O)N[C@@H](CCCNC(=N)N)C(=O)Nc1ccc2nc(C3=N[C@@H](C(=O)O)CS3)sc2c1.O=C(O)C(F)(F)F` [CH3O-acetyl-beta-Ala-Gly-Arg-aminoluciferine•TFA], at thrombin [2], the RLU thrombin is on record as 925567 RLU and the “RLU thrombin/RLU plasmin” value came to 3.1. For the same compound, the RLU plasmin on plasmin is recorded as 294631 RLU.
